According to US10174016B2 (BAYER AKTIENGESELLSCHAFT, priority 2014, dated 2019):
Like-named read-outs stand apart in the source and are kept apart here.

Columns and labels:
human P2X3 receptor = human P2X3 receptor (Homo sapiens (Human), UniProt P56373); assay: Intracellular calcium measurement (FLIPR, Fluo-4) of antagonist activity at human P2X3 receptors; type: cell-based; details: read-out: hP2X3 IC50
In short: (§1)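 Cells expressing human P2X3 or P2X2/3, loaded with Fluo-4, preincubated 30 min at 37° C. with compound (1% DMSO final), then challenged with α,β-Me-ATP at its EC80. Peak FLIPR fluorescence over 90 sec gave % response; IC50, maximal inhibition and Hill slope from triplicates.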

human P2X2/3 receptor = human P2X2/3 receptor (Homo sapiens (Human), UniProt P56373+Q9UBL9); assay: Intracellular calcium measurement (FLIPR, Fluo-4) of antagonist activity at human P2X2/3 receptors; type: cell-based
In short: as §1

[1] = human P2X3, FLIPR calcium assay, agonist α,β-Me-ATP
[2] = human P2X2/3, FLIPR calcium assay, agonist α,β-Me-ATP, read-out: hP2X2/3 IC50

human P2X3 receptor, sequence (P56373 whole entry): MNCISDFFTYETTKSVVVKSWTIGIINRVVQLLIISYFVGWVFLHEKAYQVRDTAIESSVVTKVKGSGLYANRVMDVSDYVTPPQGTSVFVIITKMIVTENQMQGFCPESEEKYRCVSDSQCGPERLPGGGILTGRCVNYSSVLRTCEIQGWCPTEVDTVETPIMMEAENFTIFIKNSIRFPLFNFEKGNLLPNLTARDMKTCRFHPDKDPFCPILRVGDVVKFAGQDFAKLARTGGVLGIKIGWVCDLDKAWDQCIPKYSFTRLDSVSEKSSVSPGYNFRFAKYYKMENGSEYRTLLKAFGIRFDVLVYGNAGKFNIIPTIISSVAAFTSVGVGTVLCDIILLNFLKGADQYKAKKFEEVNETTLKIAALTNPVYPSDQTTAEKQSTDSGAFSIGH
human P2X2/3 receptor, sequence (P56373 whole entry): as above
human P2X2/3 receptor, sequence (Q9UBL9 whole entry): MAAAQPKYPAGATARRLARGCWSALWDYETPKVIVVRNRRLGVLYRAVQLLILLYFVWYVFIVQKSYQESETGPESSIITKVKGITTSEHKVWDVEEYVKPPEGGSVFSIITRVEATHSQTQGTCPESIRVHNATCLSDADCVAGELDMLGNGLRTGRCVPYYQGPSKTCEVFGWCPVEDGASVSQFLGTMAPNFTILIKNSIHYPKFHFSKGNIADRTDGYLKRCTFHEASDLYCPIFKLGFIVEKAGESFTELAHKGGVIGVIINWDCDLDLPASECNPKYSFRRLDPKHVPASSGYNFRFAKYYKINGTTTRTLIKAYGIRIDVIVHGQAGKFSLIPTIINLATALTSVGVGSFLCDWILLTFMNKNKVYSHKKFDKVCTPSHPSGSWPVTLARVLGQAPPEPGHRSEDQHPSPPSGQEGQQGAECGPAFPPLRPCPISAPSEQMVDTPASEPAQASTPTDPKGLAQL

Row | Compound | IC50 (human P2X3 receptor; [1]) [nM] | IC50 (human P2X2/3 receptor; [2]) [nM] | IC50 (human P2X3 receptor) [nM] | IC50 (human P2X2/3 receptor; hP2X2/3 IC50 (nM)) [nM]
1 | Cc1cnc(-c2cc(O[C@H]3CN4CCC3CC4)cc(C(=O)N[C@H](C)c3ccc(C(F)(F)F)nc3)c2)s1 [Example 172, 3-[(3R)-1-azabicyclo[2.2.2]oct-3-yloxy]-5-(5-methyl-1,3-thiazol-2-yl)-N-{(1R)-1-[6-(trifluoromethyl)pyridin-3-yl]ethyl}benzamide] |  |  | 31 | 2110
2 | CCc1cnc(-c2cc(O[C@@H]3CN4CCC3CC4)cc(C(=O)N[C@H](C)c3cnc(C(F)(F)F)nc3)c2)s1 [Example 173, 3-[(3S)-1-azabicyclo[2.2.2]oct-3-yloxy]-5-(5-ethyl-1,3-thiazol-2-yl)-N-{(1R)-1-[2-(trifluoromethyl)pyrimidin-5-yl]ethyl}benzamide] |  |  | 5 | 311
3 | CCc1cnc(-c2cc(O[C@H]3CN4CCC3CC4)cc(C(=O)N[C@H](C)c3cnc(C(F)(F)F)nc3)c2)s1 [Example 174, 3-[(3R)-1-azabicyclo[2.2.2]oct-3-yloxy]-5-(5-ethyl-1,3-thiazol-2-yl)-N-{(1R)-1-[2-(trifluoromethyl)pyrimidin-5-yl]ethyl}benzamide] |  |  | 11 | 790
4 | Cc1cnc(-c2cc(O[C@@H]3CN4CCC3CC4)cc(C(=O)N[C@H](C)c3ccc(C(F)(F)F)nc3)c2)s1 [Example 175, 3-[(3S)-1-azabicyclo[2.2.2]oct-3-yloxy]-5-(5-methyl-1,3-thiazol-2-yl)-N-{(1R)-1-[6-(trifluoromethyl)pyridin-3-yl]ethyl}benzamide] |  |  | 23 | 1270
5 | Cc1cnc(-c2cc(OC[C@H]3COCCO3)cc(C(=O)N[C@H](C)c3cnc(C(F)(F)F)nc3)c2)s1 [Example 178, 3-[(2R)-1,4-dioxan-2-ylmethoxy]-5-(5-methyl-1,3-thiazol-2-yl)-N-{(1R)-1-[2-(trifluoromethyl)pyrimidin-5-yl]ethyl}benzamide] | 39 | 1880 |  | 
6 | Cc1cnc(-c2cc(OC[C@H]3COCCO3)cc(C(=O)N[C@H](C)c3ccc(C(F)(F)F)nn3)c2)s1 [Example 179, 3-[(2R)-1,4-dioxan-2-ylmethoxy]-5-(5-methyl-1,3-thiazol-2-yl)-N-{(1R)-1-[6-(trifluoromethyl)pyridazin-3-yl]ethyl} benzamide] | 13 | 703 |  | 
7 | Cc1cnc(-c2cc(OC[C@@H]3COCCO3)cc(C(=O)N[C@H](C)c3ccc(C(F)(F)F)nc3)c2)s1 [Example 180, 3-[(2S)-1,4-dioxan-2-ylmethoxy]-5-(5-methyl-1,3-thiazol-2-yl)-N-{(1R)-1-[6-(trifluoromethyl)pyridin-3-yl]ethyl}benzamide] | 31 | 1400 |  | 
8 | Cc1cnc(-c2cc(O[C@@H]3CCCN(C(=O)OC(C)(C)C)C3)cc(C(=O)N[C@H](C)c3cnc(C(F)(F)F)nc3)c2)s1 [Example 190, tert-Butyl (3R)-3-[3-(5-methyl-1,3-thiazol-2-yl)-5-({(1R)-1-[2-(trifluoromethyl)pyrimidin-5-yl]ethyl}carbamoyl)phenoxy]piperidine-1-carboxylate] | 7 | 207 |  | 
9 | Cc1cnc(-c2cc(O[C@@H]3CN4CCC3CC4)cc(C(=O)N[C@H](C)c3cnc(C(F)(F)F)nc3)c2)s1 [Example 192, 3-[(3S)-1-azabicyclo[2.2.2]oct-3-yloxy]-5-(5-methyl-1,3-thiazol-2-yl)-N-{(1R)-1-[2-(trifluoromethyl)pyrimidin-5-yl]ethyl} benzamide] |  |  | 12 | 910
10 | Cc1cnc(-c2cc(OC3CC4CC3CN4C)cc(C(=O)N[C@H](C)c3cnc(C(F)(F)F)nc3)c2)s1 (stereo partly drawn) [Example 209, 3-{[2-methyl-2-azabicyclo[2.2.1]hept-5-yl]oxy}-5-(5-methyl-1,3-thiazol-2-yl)-N-{(1R)-1-[2-(trifluoromethyl)pyrimidin-5-yl]ethyl}benzamide] | 30 | 1470 |  | 
11 | Cc1cnc(-c2cc(OC3CCN(C)CC3)cc(C(=O)N[C@H](C)c3ccc(C(F)(F)F)nn3)c2)s1 [Example 210, 3-[(1-methylpiperidin-4-yl)oxy]-5-(5-methyl-1,3-thiazol-2-yl)-N-{(1R)-1-[6-(trifluoromethyl)pyridazin-3-yl]ethyl} benzamide] | 12 | 1010 |  | 
12 | Cc1cnc(-c2cc(OC3CN(C)C3)cc(C(=O)N[C@H](C)c3ccc(C(F)(F)F)nn3)c2)s1 [Example 211, 3-[(1-methylazetidin-3-yl)oxy]-5-(5-methyl-1,3-thiazol-2-yl)-N-{(1R)-1-[6-(trifluoromethyl)pyridazin-3-yl]ethyl} benzamide] | 395 | ≥ 10000 |  | 
13 | Cc1cnc(-c2cc(OC3CC4(C3)CN(C)C4)cc(C(=O)N[C@H](C)c3cnc(C(F)(F)F)nc3)c2)s1 [Example 214, 3-[(2-methyl-2-azaspiro [3.3]hept-6-yl)oxy]-5-(5-methyl-1,3-thiazol-2-yl)-N-{(1R)-1-[2-(trifluoromethyl)pyrimidin-5-yl]ethyl} benzamide] | 47 | 3390 |  | 
14 | Cc1cnc(-c2cc(OC3CCN(C)CC3)cc(C(=O)N[C@H](C)c3cnc(C(F)F)nc3)c2)s1 [Example 215] |  | 992 | 16 | 
15 | Cc1cnc(-c2cc(O[C@H]3C[C@H]4CC[C@@H](C3)N4C)cc(C(=O)N[C@H](C)c3cnc(C(F)(F)F)nc3)c2)s1 [Example 216, 3-{[(3-endo)-8-methyl-8-azabicyclo[3.2.1]oct-3-yl]oxy}-5-(5-methyl-1,3-thiazol-2-yl)-N-{(1R)-1-[2-(trifluoromethyl)pyrimidin-5-yl]ethyl} benzamide] | 14 | 928 |  | 
16 | Cc1cnc(-c2cc(O[C@@H]3C[C@H]4CC[C@@H](C3)N4C)cc(C(=O)N[C@H](C)c3cnc(C(F)(F)F)nc3)c2)s1 [Example 217, 3-{[(3-exo)-8-methyl-8-azabicyclo[3.2.1]oct-3-yl]oxy}-5-(5-methyl-1,3-thiazol-2-yl)-N-{(1R)-1-[2-(trifluoromethyl)pyrimidin-5-yl]ethyl} benzamide] | 25 | 1750 |  | 

Now from value to molecule, other results behind:

Row | IC50 (human P2X3 receptor; [1]) [nM] | IC50 (human P2X2/3 receptor; [2]) [nM] | Compound | IC50 (human P2X3 receptor) [nM] | IC50 (human P2X2/3 receptor; hP2X2/3 IC50 (nM)) [nM]
17 | 29 | 607 | Cc1cnc(-c2cc(Oc3nnc(C)s3)cc(C(=O)N[C@H](C)c3ccc(C(F)(F)F)nc3)c2)s1 [Example 176, 3-[(5-methyl-1,3,4-thiadiazol-2-yl)oxy]-5-(5-methyl-1,3-thiazol-2-yl)-N-{(1R)-1-[6-(trifluoromethyl)pyridin-3-yl]ethyl}benzamide] |  | 
18 | 19 | 1180 | Cc1cnc(-c2cc(OC[C@@H]3COCCO3)cc(C(=O)N[C@H](C)c3cnc(C(F)(F)F)nc3)c2)s1 [Example 181, 3-[(2S)-1,4-dioxan-2-ylmethoxy]-5-(5-methyl-1,3-thiazol-2-yl)-N-{(1R)-1-[2-(trifluoromethyl)pyrimidin-5-yl]ethyl}benzamide] |  | 
19 | 63 | 1940 | Cc1cnc(-c2cc(OC[C@@H]3COCCO3)cc(C(=O)N[C@H](C)c3ccc(C(F)(F)F)nn3)c2)s1 [Example 182, 3-[(2S)-1,4-dioxan-2-ylmethoxy]-5-(5-methyl-1,3-thiazol-2-yl)-N-{(1R)-1-[6-(trifluoromethyl)pyridazin-3-yl]ethyl}benzamide] |  | 
20 | 61 | 364 | CC#CCOc1cc(C(=O)N[C@H](C)c2ccc(C)nn2)cc(-c2ncc(C)s2)c1 [Example 191, 3-(but-2-yn-1-yloxy)-N-[(1R)-1-(6-methylpyridazin-3-yl)ethyl]-5-(5-methyl-1,3-thiazol-2-yl) benzamide] |  | 
21 | 16 | 1850 | Cc1cnc(-c2cc(OC3CCNCC3)cc(C(=O)N[C@H](C)c3ccc(C(F)(F)F)nn3)c2)s1 [Example 201, 3-(5-methyl-1,3-thiazol-2-yl)-5-(piperidin-4-yloxy)-N-{(1R)-1-[6-(trifluoromethyl)pyridazin-3-yl]ethyl}benzamide] |  | 
22 | 42 | 1710 | Cc1cnc(-c2cc(OC3CC4(CNC4)C3)cc(C(=O)N[C@H](C)c3cnc(C(F)(F)F)nc3)c2)s1 [Example 202, 3-(2-azaspiro[3.3]hept-6-yloxy)-5-(5-methyl-1,3-thiazol-2-yl)-N-{(1R)-1-[2-(trifluoromethyl)pyrimidin-5-yl]ethyl} benzamide] |  | 
23 | 36 | 1560 | Cc1cnc(-c2cc(O[C@H]3CCNC3)cc(C(=O)N[C@H](C)c3cnc(C(F)(F)F)nc3)c2)s1 [Example 203, 3-(5-methyl-1,3-thiazol-2-yl)-5-[(3S)-pyrrolidin-3-yloxy]-N-{(1R)-1-[2-(trifluoromethyl)pyrimidin-5-yl]ethyl} benzamide] |  | 
24 | 7 | 82 | Cc1cnc(-c2cc(OC3CCNCC3F)cc(C(=O)N[C@H](C)c3cnc(C(F)(F)F)nc3)c2)s1 (stereo partly drawn) [Example 204, 3-{[3-fluoropiperidin-4-yl]oxy}-5-(5-methyl-1,3-thiazol-2-yl)-N-{(1R)-1-[2-(trifluoromethyl)pyrimidin-5-yl]ethyl} benzamide] |  | 
25 | 4 | 46 | Cc1cnc(-c2cc(OC3CCN(C)CC3F)cc(C(=O)N[C@H](C)c3cnc(C(F)(F)F)nc3)c2)s1 (stereo partly drawn) [Example 212, 3-[(3-fluoro-1-methylpiperidin-4-yl)oxy]-5-(5-methyl-1,3-thiazol-2-yl)-N-{(1R)-1-[2-(trifluoromethyl)pyrimidin-5-yl]ethyl} benzamide] |  | 
26 | 5 | 81 | Cc1cnc(-c2cc(OCC3(N(C)C)CC3)cc(C(=O)N[C@H](C)c3cnc(C(F)(F)F)nc3)c2)s1 [Example 213, 3-{[1-(dimethylamino)cyclopropyl]methoxy}-5-(5-methyl-1,3-thiazol-2-yl)-N-{(1R)-1-[2-(trifluoromethyl)pyrimidin-5-yl]ethyl} benzamide] |  | 
